Reference: patent US6608189B1, “Fluorescent protein sensors for measuring the pH of a biological sample” (University of California, priority 1998, dated 2003)

Columns and labels:
[1] = tested on: mitochondrial matrix of chick skeletal myotubes; experiment: mitochondrial matrix pH with mito-YFP H148G in chick skeletal myotubes; assay type: cell-based; conditions: 2 uM, t about 1400 seconds
Description: Fluorescence was also examined, and pH measured, in primary cultures of chick skeletal myotubes transfected with the mito-YFP H148G mutant. […] Thereafter fluorescence continued to be observed during calibration at ph 6.9, 7.6 and 8.0.

[2] = tested on: mitochondrial matrix of HeLa cells; experiment: mitochondrial matrix pH with mito-YFP H148G in HeLa cells; assay type: cell-based; conditions: 5 uM
Description: YFP H148G expression was monitored by observing fluorescence over time. Mitochondrial pH was also monitored by pH titration as described in Example 3 using nigericin and monensin.
5 μM CCCp was added at about t≈300 seconds. […] Then a calibration was performed by perfusing the cells with extracellular medium of pH 7, 7.5, 8, and 8.35 containing the ionophores nigericin plus monensin to equilibrate mitochondrial pH and extracellular pH. Fluorescence in mitochondria increased stepwise with each change of extracellular pH.

[3] = tested on: mitochondria of HeLa cells; experiment: GFP T203I as pH-insensitive reference in mitochondria of HeLa cells; assay type: cell-based; conditions: control experiments
Description: To identify a GFP sensor protein suitable for use as a reference protein for measuring mitochondrial matrix pH, the GFP mutant T203I was expressed in the mitochondria of HeLa cells.
Fluorescence of HeLa cells transfected with the GFP T203I mutant was monitored for about 400 seconds using an excitation ratio of 480 nm/400 nm. 10 μM CCCP was then added to the cells, and fluorescence was monitored for an additional 250 seconds. […] In control experiments, it was observed that addition of CCCP corresponded to a drop in pH of about 1 unit. Thus, the GFP T203I mutant is suitable for use as a reference, pH-insensitive mutant.

[4] = tested on: mitochondrial matrix of HeLa cells; experiment: pH in the mitochondrial matrix with EYFP-mito; assay type: cell-based; conditions: HeLa cells expressing EYFP-mito
Description: To measure pH in the mitochondrial matrix using mutant GFP sensor proteins, HeLa cells and neonatal rat cardiomyocytes were transfected with the fluorescent protein pH sensor EYFP-mito. A Bio-Rad MRC-1000 confocal microscope was used for analysis of the targeted protein. […] In situ pH titration was performed with nigericin/monensin as described in Example 3.

[5] = tested on: HeLa cells; experiment: pH in cytosol and nucleus of cells expressing EYFP; assay type: cell-based; conditions: reversible on wash-out
Description: HeLa cells and AT-20 cells grown on glass coverslips were transiently lipo-transfected (Lipofectin™, GIBCO) with polynucleotide constructs encoding EYFP.
(§1) Cells were imaged between 2 and 4 days after transfection at 22° C. with a cooled charge-coupled device camera (Photometrices, Tucson, Ariz.) as described in Miyawaki et al., Nature 388:882, (1997). The interference filters (Omega Optical and Chroma Technology, Brattleboro, Vt.) used for excitation and emission were 440 ECFP; 480 535 EGFP or EYFP. The dichroic mirrors were 455 DCLP for ECFP and 505 DCLP for EGFP or EYFP. Regions of interest were selected manually, and pixel intensities were spatially averaged after background subtraction. A binning of 2 was used to improve signal/noise and minimize photodamage and photoisomerization of EYFP. High KCl buffer plus 5 μM each of the ionophores nigericin (Fluka) and monensin (Calbiochem) was used for in situ titrations in living cells. Cells were loaded with cytosolic pH indicators by incubation with 3 μM carboxy-SNARF/AM or BCECF/AM (Molecular Probes) for 45 minutes, then washed for 30 minutes, all at 22° C.
Calibration of fluorescence intensity with pH in situ was accomplished with a mix of the alkali cation/H+ ionophores nigericin and monensin in bath solutions of defined pH and high K+. Fluorescence equilibrated within 1-4 minutes after each exchange of solution.

[6] = tested on: Golgi lumen of HeLa cells; experiment: pH in the Golgi lumen with GT-EYFP; assay type: cell-based; conditions: HeLa cells expressing GT-EYFP
Description: as §1
The pH of the Golgi lumen was measured by transfecting HeLa or AT-20 cells with the constructs GT-ECFP, GT-EGFP, or GT-EYFP. Bright juxtanuclear fluorescence was observed, with little increase in diffuse staining above autofluorescnce in most cells.
The pH gradient across the Golgi membrane is maintained by the electrogenic ATP-dependent H^+ pump (V-ATPase). The V-ATPase generates a ΔpH (acidic inside) and Δψ(positive inside), which opposes further H^+ transport. The movement of counter-ions, Cl^− in (or K^+ out), with H^+ uptake would shunt the Δψ, allowing a larger ΔpH to be generated. These mechanisms were investigated in intact single HeLa cells transfected with GT-EYFP.

[7] = tested on: Golgi lumen of HeLa cells; experiment: ratiometric Golgi pH with GT-EYFP and GT-ECFP; assay type: cell-based; conditions: cotransfected HeLa cells
Description: Quantitative measurements of fluorescence with nonratiometric indicators can suffer from artifacts as a result of cell movement or focusing. To correct for these effects, the cyan-emitting mutant GT-ECFP was co-transfected into cells along with GT-EYFP. ECFP has excitation and emission peaks that can be separated from those of EYFP by appropriate filters. In addition, ECFP is less pH-sensitive than EYFP (see FIG. 2B).
Although the ratio of EYFP to ECFP emission varied between cells, probably reflecting a different concentration of GT-EYFP and GT-ECFP in the Golgi lumen, it changed with pH as expected (FIG. 3B). Bafilomcin A1 raised the GT-EYFP/GT-ECFP emission ratio, i.e, it raised pHG.

[8] = tested on: macrophage phagosomes; conditions: cited from earlier work
[9] = tested on: mitochondrial matrix of HeLa cells; experiment: mitochondrial matrix pH with mito-YFP H148Q in HeLa cells; assay type: cell-based; conditions: 10 uM in high KCl titration buffer
Description: The YFP H148Q mutant has a pKa of about 7.4, which is intermediate between the pKa of EYFP and YFP mutant H148G. […] Fluorescence was measured over time (beginning at t≈0), including following the addition of 10 μM nigericin in high KCL titration buffer at t≈500 seconds.
Fluorescence decreased to about 175 units at t=1000 seconds by addition of nigericin, which lowered the pH to about 6.9. Fluorescence then returned stepwise to 400 units with each change of the extracellular medium.

[10] = biological target: YFP (yellow fluorescent protein; GFP quadruple mutant T203Y/S65G/V68L/S72A, also carrying Q80R) (Aequorea victoria) [GFP: P42212]; experiment: X-ray crystal structure of YFP, largest contact area with an adjacent molecule

For `N#CC(C#N)=NNc1cccc(Cl)c1` [CCCP, carbonylcyanide m-chlorophenylhydrazone], the “mitochondrial pH after addition” value [1] was 6.9, the “mitochondrial pH after addition” value [2] was 7.0 and the “drop in pH on addition” value [3] was “about 1 unit”. For the same molecule, the “mitochondrial pH after acidification by the protonophore” value [4] was ~7.
In the case of `Cl.N` [NH4Cl], the “change of EYFP fluorescence (pH) on perfusion” value [5] is reported as “increase in fluorescence”.
For `CO/C1=C\C(C)=C\[C@@H](C)[C@@H](O)[C@@H](C)C/C(C)=C/C=C/[C@H](OC)[C@@H]([C@@H](C)[C@@H](O)[C@H](C)[C@@]2(O)C[C@@H](O)[C@H](C)[C@@H](C(C)C)O2)OC1=O` [bafilomycin A1], the “increase of pHG” value ([6]; 0.2 uM) was “about 0.6 units”, the pHG after treatment ([6]; 0.2 uM, n=12 cells) was 7.16 and the “initial rate of Golgi alkalinization” value ([6]; n=12 cells) was 0.52 pH units per minute. The “GT-EYFP/GT-ECFP emission ratio (pHG)” value [7] was “raised” and the “rate of alkalinization reported for other acidic compartments” value [8] was 0.09 pH/min.
For `CC(O)C(=O)O` (stereo not shown) [lactate], the “change of EYFP fluorescence (pH) on perfusion” value [5] was “decrease in fluorescence”.
In the case of `CO[C@@H]1C[C@@H](C[C@H]2CC[C@H](C)[C@H]([C@@H](C)C(=O)O)O2)O[C@]2(O[C@](C)([C@H]3CC[C@@](C)([C@@H]4O[C@@H]([C@H]5O[C@@](O)(CO)[C@H](C)C[C@@H]5C)C[C@@H]4C)O3)C[C@H]2C)[C@@H]1C` [nigericin], the “mitochondrial pH after addition” value [9] is reported as “about 6.9”.
“YFP (yellow fluorescent protein; GFP quadruple mutant T203Y/S65G/V68L/S72A, also carrying Q80R) (from UniProt P42212 1-238)” gave a contact area on one monomer surface [10] of 722 Å2.
